From patent US11246857B2, “Anti-fungal inhibitors” (THE JOHNS HOPKINS UNIVERSITY, priority 2017, dated 2022)
≈ marks a conversion by molar mass, not a printed value. Entries after “also recorded” stand apart in the source; their conditions may differ. Read-outs that look alike come from different tables or passages of the source.

How the values were obtained:
C. neoformans [1] = assay: Growth inhibition assay (Bioscreen C, 2-fold dilution series, plating for fungicidal vs fungistatic) in C. neoformans; type: cell-based, Cryptococcus neoformans H99; details: for antifungal activity (in words): dose-response; for fungicidal activity, lowest concentration: plated after 72 h, 24 h recovery at 30° on Sabouraud agar
Procedure: Primary screen and dose-response of selected candidates. To identify antifungal candidates in the MMV Malaria Box, the inventors initially casted the widest possible net. Growth inhibition assays were done using the Bioscreen C™ with constant agitation, in rich media and physiological relevant temperature of 37° to test the 400 antimalarial compounds against C. neoformans. […] To examine whether or not each dose was fungicidal or just fungistatic, the inventors plated a sample of each dilution after 72 hours. They were allowed to grow at the optimal growth temperature of 30° for 24 hours on Sabouraud rich agar plates and colonies were examined for growth. […]
(§1) Strains. H99 (Serotype A) is a well-characterized wild type laboratory reference strain of Cryptococcus neoformans (22). H99 was selected because it is a virulent strain widely by the field. Cryptococcus gattii strain R265 is used as the primary reference strain to which the genome is based (ATCC MYA-4093). This strain was isolated from the Vancouver Island (British Columbia, Canada) outbreak of 2004 (23, 24). H99 and R265 were maintained in Sabouraud (Sab) dextrose broth at 30° C. with constant 200 RPM agitation. One day prior to each experimental drug treatment, Sab broth was inoculated from glycerol stock and grown overnight to log phase before washing with PBS and resuspending in fresh Sab broth prior to treatment.
(§2) Compound library. 400 compounds were made available by the Medicines for Malaria Venture (Geneva, Switzerland) in the form of the open-access MMV Malaria Box. Compounds were stored at −80° C. in 100% DMSO at a concentration of 10 mM. Before usage, compounds were thawed at room temperature and thoroughly mixed. Compounds were diluted in 2-fold series 10 mM down to […] with DMSO before subsequent growth inhibition assays. Growth inhibition assays. The effectiveness of these MMV Malaria Box compounds against C. neoformans was measured by turbidity over time. The Bioscreen C™ (Growth Curves USA, Piscataway, N.J.) allows us to analyze ˜60 compounds at a time in triplicate with constant temperature and agitation. Assays were measured at 420-580 nm, wideband range every 15′ for 72 h at 37° C. to simulate physiologically relevant temperatures. Wideband is generally used for turbidity measurements, as it is mostly insensitive to changes in color. […] We inoculated 5×10^3 H99 C. neoformans and SC5314 C. albicans in 200 μl of Sabouraud dextrose broth in each of the honeycomb (HC-2) plate's 100 wells. A two-fold dilution series of each compound from 50 μM down to 0.39 μM final concentration were tested for effects against C. neoformans. To qualitatively differentiate fungistatic and fungicidal activity, 5 μl of each well after 72 h were spotted on Sabouraud dextrose agar rich media plates and allowed to grow at the optimal temperature 30° C. to induce a full recovery of viable yeast. Spots were noted after 24 h to identify fungicidal versus fungistatic concentrations of each compound. […] Mammalian cell viability and toxicity assays.

human fibroblast = assay: Toxicity against human fibroblast; type: cell-based
From the text: XlogP values are derived from PubChem and describe the lipophilicity of the molecule. The topological polar surface area (tPSA) is a metric for predicting cell penetration, with values <140 to be favorable. […] Toxicity against human fibroblast was used to calculate the therapeutic index TI.

C. albicans = assay: Growth inhibition assay, 2-fold dilution series, in C. albicans; type: cell-based, Candida albicans SC5314; details: for MIC: Candida albicans, after 72 h
Procedure: as §2

C. gattii = assay: Growth inhibition assay, 2-fold dilution series, in C. gattii; type: cell-based, Cryptococcus gattii R265; details: for MIC: Cryptococcus gattii, after 72 h
Procedure: as §1, §2

C. neoformans [2] = assay: Imaging flow cytometry (Amnis ImageStream) of DM262 treated C. neoformans; type: cell-based, Cryptococcus neoformans
[3] = system: murine bone marrow derived macrophages (BMDM); assay: Mammalian cell lysis, LDH release assay in BMDM; type: cell-based
L. prolificans = assay: Growth inhibition assay, 2-fold dilution series, in L. prolificans; type: cell-based, Lomentospora prolificans; details: for MIC: Lomentospora prolificans, after 72 h
[4] = system: murine bone marrow derived macrophages (BMDM); assay: Mammalian cell viability, MTT assay in BMDM; type: cell-based
[5] = 72 h drug exposure in liquid culture, then recovery on agar plates overnight
[6] = Cryptococcus neoformans, C. neoformans, after 72 h, read-out: MIC
[7] = highest concentration studied 50 μM

SMILES | MIC (C. neoformans [1]; [5]) [µg/mL] | antifungal activity (in words) (C. neoformans [1]; C. neoformans) | Toxicity human fibroblast (human fibroblast) [µM] | fold more effective than fluconazole (fungicidal activity) (C. neoformans [1]; C. neoformans) [fold] | fungicidal activity, lowest concentration (C. neoformans [1]; C. neoformans) [µM] | MIC (C. albicans) [µM] | MIC (C. gattii) [µM] | MIC (C. neoformans [1]; [6]) [µM] | MIC (L. prolificans) [µM] | further results
Cc1ccc(Nc2nc(-c3ccccn3)cs2)cc1 [Compound 64] | 1.6 | low activity | – | – | – | – | – | – | – | –
O=C(Nc1cccc(C(F)(F)F)c1)c1cc(Cl)ccc1O [Compound 155] | 0.5 | – | 0.024 | 8 | 3.12 | – | – | – | – | –
Cc1ccc2cc3c(N)c4c(C)ccc(C)c4nc3nc2c1 [Compound 253] | 7.2 | low activity | 11.4 | – | – | – | – | – | – | –
Cc1ccc2c(c1)c1cc(C)ccc1n2CC(O)CNC1CCCCC1 (centres unmarked) [Compound 380] | 0.9 | – | 4.03 | 8 | 3.12 | – | – | – | – | –
Nc1ccc(-c2nc3ccc(Cc4ccc5nc(C6CCC(N)CC6)[nH]c5c4)cc3[nH]2)cc1 (centres unmarked) [DM262] | 0.3 | – | 11.4 | 16 | 1.56 | 0.8 (≈ 0.349 µg/mL) | 50 (≈ 21.8 µg/mL) | 0.8 | 6.3 (≈ 2.75 µg/mL) | concentration giving significant delay in growth (C. gattii): ≥ 12.5 µM; time until log phase is reached (C. gattii; 12.5 μM treatment, growth curves): approximately 48 h; fold more effective than fluconazole (fungistatic activity) (C. neoformans [1]; C. neoformans): 32 fold; fungistatic activity, lowest concentration (C. neoformans [1]; C. neoformans, 72 h): 0.8 µM; concentration at which cells were dramatically trending towards apoptosis (apoptotic index, IDEAS 6.2) (C. neoformans [2]; 24 h treatment, morphology of the nucleus): 6.25 µM; effect on average size of the cells (C. neoformans [2]; brightfield, ImageStream): No significant change; also recorded: no effect; LD50 ([3]; BMDM cell lysis, LDH release): 50 µM; concentration with minimal variance from DMSO vehicle control ([3]; BMDM, LDH): up to 12.5 μM; concentration with minimal variance from DMSO vehicle control ([4]; BMDM): up to 12.5 μM; LD50 ([4]; BMDM viability): 50 µM
OC(Cn1cncn1)(Cn1cncn1)c1ccc(F)cc1F [Fluconazole] | 7.6 | – | – | – | – | > 50 | 50 (≈ 15.3 µg/mL) | 25 | > 50 | effect on final OD420-580 (in words) (C. albicans): only slight decrease; fungicidal concentration (C. albicans; [7]): > 50 µM; concentration at which growth was unaffected (C. gattii): ≤ 6.3 µM; fungicidal concentration (L. prolificans; [7]): > 50 µM; response in growth inhibition assay (in words) (L. prolificans; up to the highest concentration tested, 50 μM): complete resistance
